According to patent US10183944B2 (Asana Biosciences, LLC, priority 2011, dated 2019):
Marks after values point to notes of the source that are not given here.

Experiments:
[1] = molecular target: Syk (356-635 amino acids) catalytic domain (Homo sapiens (Human), UniProt P43405); assay: Inhibition of enzymatic Syk kinase activity (radiometric); assay type: biochemical; conditions: read-out: IC50 Syk
Method in brief: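 Human Syk (356-635) kinase domain (0.035–7.5 ng/reaction) preincubated with compound 30 minutes at room temperature, then reacted with pG4T substrate, 100 μM ATP (stock) and γ-32P-ATP for 10 minutes at 30° C. Reaction stopped with HCl/ATP, spotted on P81 paper, washed and counted by scintillation. Percent inhibition versus no-compound counts.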

[2] = tested on: Collagen Induced Arthritis (CIA) in female Lewis rats; assay: In vivo chronic study: Collagen Induced Arthritis (CIA); design: species or system rat; conditions: 2 × 30 mg/Kg
From the text: Collagen Induced Arthritis (CIA) is a well characterized model of human rheumatoid arthritis (RA) that can be induced in susceptible animals following immunization with type II collagen (cII) in Freund's adjuvant. […] Pathophysiology of CIA consists of T cell component, as evidenced by increased infiltration of T-cells in joint synovium and also, by attenuation of CIA in T-cell deficient mice. CIA development involves B cell component too, as is evidenced by circulating cII antibody in disease animals and also, failure to develop the disease in xid mice/B cell deficient mice/CXCR5 null mice. […] See, Pine, “Inflammation and bone erosion are suppressed in models of rheumatoid arthritis following treatment with a novel Syk inhibitor”, Clin. Immunol., 2007, 124(3):244-57; Xiong cha, “Suppression of the onset and progression of collagen-induced arthritis in rats by QFGJS, a preparation from an anti-arthritic Chinese herbal formula”, J. Ethnopharmacology (2007) 110:39-48; and Stolina, “The evolving systemic and local biomarker milieu at different stages of disease progression in rat collagen induced arthritis”, Biomarkers (2008) 13(7-8):692-712, which are herein incorporated by reference.
Female Lewis rats (8 per group, 6-8 weeks old) were immunized on day 1 with type II collagen (Immunization grade Bovine type II; Chondrex; Cat #20021) emulsified with Complete Freund's Adjuvant (Sigma; Cat# F5881) at a final concentration of 1.2 mg/mL). For the initial immunization, the animals were injected at the base of the tail with 300 μg of the cII (0.25 mL/rat). A booster injection of the same type II collagen emulsified with Incomplete Freund's Adjuvant (Sigma, Cat #F5506) (0.25 mL/rat) was given to the animals on day 8 at the base of the tail (100 μg). The final cII concentration in the booster was […].
Animals with an arthritic score of ≥1 were grouped and dosing with test compound (30 mg/kg bid) or methotrexate (0.5 mg/kg) started between about day 12 to day 14, with daily dosing of their respective compounds continuing for 10 days.
Edema: Paw volumes are measured by Plethysmometry for the animals before induction of CIA (Basal readings) and on Day 1, 3, 6 and 9 of dosing period. Both hind paw volumes were measured and edema was calculated by subtracting from the basal mean.
Arthritic score: Animals were scored for the symptoms of arthritis every day starting from Day of onset of disease till the end of the study. Both the hind paws were scored and the total scores were averaged and compared with control. The scoring pattern was as follows:
The percent inhibition of Edema was calculated with respect to control by the formula: […]
The percent inhibition of Arthritic score was calculated with respect to control by the formula: […]
Means of different groups were compared with control using one way ANOVA followed by Dunnett's test. Significance is represented as follows.

Row | SMILES | IC50 [1] [nM] | Percent inhibition of Edema (Day 9 of dosing) [2] | Percent inhibition of Arthritic score (Day 10 of dosing) [2]
1 | N#CCC1CCN(c2nc(Nc3ccc(N4CCN(CCO)CC4)cc3)c3c(=O)[nH]ncc3n2)CC1 [Example 191, 2-(1-(4-((4-(4-(2-hydroxyethyl)piperazin-1-yl)phenyl)amino)-5-oxo-5,6-dihydropyrimido[4,5-d]pyridazin-2-yl)piperidin-4-yl)acetonitrile] | < 10 | 90*** | 100***
2 | Cl.O=c1[nH]ncc2nc(-c3ccccc3)nc(Nc3ccc(CN4CCNCC4)cc3)c12 [Example 7, 2-phenyl-4-(4-(piperazin-1-ylmethyl)phenylamino)pyrimido[4,5-d]pyridazin-5(6H)-one hydrochloride] | < 50 | – | –
3 | O=C(O)C1CC12CCN(c1ccc(Nc3nc(-c4ccccc4)nc4cn[nH]c(=O)c34)cc1)CC2 (centres unmarked) [Example 19, 6-(4-(5-oxo-2-phenyl-5,6-dihydropyrimido[4,5-d]pyridazin-4-ylamino)phenyl)-6-azaspiro[2.5]octane-1-carboxylic acid] | < 50 | 5** | 20*
4 | O=C(O)C1CC12CCN(c1ccc(Nc3nc(N4CCCCCC4)nc4cn[nH]c(=O)c34)cc1)CC2 (centres unmarked) [Example 62, 6-(4-((2-(azepan-1-yl)-5-oxo-5,6-dihydropyrimido[4,5-d]pyridazin-4-yl)amino)phenyl)-6-azaspiro[2.5]octane-1-carboxylic acid] | < 10 | 69*** | 81***
5 | N#CCC1CCN(c2nc(Nc3ccc(N4CCC(O)CC4)cc3)c3c(=O)[nH]ncc3n2)CC1 [Example 189, 2-(1-(4-((4-(4-hydroxypiperidin-1-yl)phenyl)amino)-5-oxo-5,6-dihydropyrimido[4,5-d]pyridazin-2-yl)piperidin-4-yl)acetonitrile] | < 10 | 90*** | 94***
6 | O=C(O)CC1CCN(c2ccc(Nc3nc(N4CCCCCC4)nc4cn[nH]c(=O)c34)cn2)CC1 [Example 108, 2-(1-(5-((2-(azepan-1-yl)-5-oxo-5,6-dihydropyrimido[4,5-d]pyridazin-4-yl)amino)pyridin-2-yl)piperidin-4-yl) acetic acid] | < 10 | 42*** | 53***
7 | O=C(O)C1CCN(c2ccc(Nc3nc(-c4ccccc4)nc4cn[nH]c(=O)c34)cc2)CC1 [Example 13, 1-(4-(5-oxo-2-phenyl-5,6-dihydropyrimido[4,5-d]pyridazin-4-ylamino)phenyl)piperidine-4-carboxylic acid] | < 50 | – | –
